Assay results published in ChEMBL document CHEMBL1201862, “PubChem BioAssay data set” (2004).
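All cell lines were grown in 96-well plates and treated with compound for 48 hours. Abbreviation: GI50, concentration required for 50% inhibition of growth.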 Activity calls are given as the source filed them. No stated cut-off is given here; in the data, active = GI50 up to about 1.1 µM and inactive = higher.

Legend:
Assay in all cases: NCI tumour cell line growth inhibition, 48 h
OVCAR-5 = system: OVCAR-5
BT-549 = system: BT-549
SW-620 = system: SW-620
SK-MEL-5 = system: SK-MEL-5
MCF7 = system: MCF7
DLD-1 = system: DLD-1
PC-3 = system: PC-3
HCT-116 = system: HCT-116
MDA-N = system: MDA-N
MDA-MB-231 = system: MDA-MB-231
SK-MEL-2 = system: SK-MEL-2
MDA-MB-435 = system: MDA-MB-435
Malme-3M = system: Malme-3M
MOLT-4 = system: MOLT-4
Hs-578T = system: Hs-578T
HCC 2998 = system: HCC 2998
M19-MEL = system: M19-MEL
DU-145 = system: DU-145
LOX IMVI = system: LOX IMVI
SNB-75 = system: SNB-75

Measured: GI50

Cn1c(=O)c2nc3sc4c(n3c2n(C)c1=O)C(=O)c1ccccc1C4=O
inactive: OVCAR-5 > 100 µM | BT-549 > 44.7 µM | SW-620 > 66.5 µM | SK-MEL-5 > 75 µM | MCF7 > 25.9 µM | DLD-1 > 100 µM | PC-3 > 42 µM | HCT-116 > 54.8 µM | MDA-N > 64.3 µM | MDA-MB-231 > 42.4 µM | SK-MEL-2 > 55.5 µM | MDA-MB-435 > 28.4 µM | Malme-3M > 90.2 µM | MOLT-4 13.5 µM | Hs-578T 23.3 µM | HCC 2998 > 80.2 µM | M19-MEL > 86.7 µM | DU-145 > 65 µM | LOX IMVI > 30.9 µM | SNB-75 14.7 µM

O=C(CCCN1CCC(C(O)c2ccc(F)cc2)CC1)c1ccc(F)cc1 (stereo not given)
inactive: OVCAR-5 58.2 µM | BT-549 45.4 µM | SW-620 61.8 µM | SK-MEL-5 46.7 µM | MCF7 64.9 µM | DLD-1 51.8 µM | PC-3 47.1 µM | HCT-116 57 µM | MDA-N 61 µM | MDA-MB-231 39.8 µM | SK-MEL-2 57.4 µM | MDA-MB-435 57 µM | Malme-3M 55.3 µM | MOLT-4 54.3 µM | Hs-578T 46.1 µM | HCC 2998 41.1 µM | M19-MEL 59.6 µM | DU-145 61.9 µM | LOX IMVI 50 µM | SNB-75 44.3 µM
